Patent publication US8945847B2, “Methods and kits for ascertaining biosafety of an agent” (Yissum Research Development Company of the Hebrew …, priority 2010, dated 2015)

How the values were obtained:
[1] = tested on: AFP, SOX17, HOXA1, NCAM1 in EBs; test: Immunofluorescent labeling of treated EBs; format: cell-based, human
Protocol: Immunofluorescent labeling: EBs were treated for seven days with either 1.5% ethanol or 1 μM all-trans-retinoic acid (see Drug Treatment section). EBs were let to settle and perfused with 10% sucrose-PBS solution for 30 minutes at 4° C., followed by an additional step in 30% sucrose-PBS solution for 1 hr at 4° C., with gentle shaking. EBs were then frozen in Tissue-Tek OCT solution (Sakura Finetek, USA) and cut into 9 μm sections. Samples were fixed following sectioning with PBS buffered 4% formaldehyde solution for 3 minutes. Blocking was performed with PBS, 2% BSA, 0.1% Triton x-100 solution for 1 hour at room temperature. Sections were incubated overnight at 4° C. with the following primary antibodies; AFP at 1:50 dilution (SC-8399, Santa-Cruz); HOXA1 at 1:50 dilution (SC-17146, Santa-Cruz); NCAM-1 at 1:150 dilution (AF2408, R&D Systems); SOX17 at 1:400 dilution (AF1924, R&D Systems). The sections were then incubated for 1 hour with the appropriate secondary antibody (Cy-3, Jackson ImmunoResearch) at room temperature. Finally, sections were counterstained with Hoechst (B2883, Sigma) for 10 minutes at room temperature.
Specifically, the protein levels of the fetal liver specific gene AFP and the earlier endodermal marker SOX17 were examined to assess the effects of ethanol treatment. The effect of RA treatment on neural differentiation was determined using antibodies for the HOXA1 protein and the neuronal specific protein NCAM1.

[2] = tested on: HiPSC EBs (hTERT-BJ1 derived clone #28); test: DNA microarray gene expression profiling of RA-treated HiPSC embryoid bodies; format: cell-based, human; conditions: RA 1 μM, seven days
Protocol: Thalidomide was tested twice and caffeine once.

[3] = tested on: human embryoid bodies (H9 HESCs); test: DNA microarray global gene expression profiling of treated HESC embryoid bodies; conditions: for genes whose expression was significantly changed (over two-fold) relative to untreated controls: EBs treated seven days
Protocol: Differentiation in-vitro into embryoid bodies (EBs) was performed by trypsinizing confluent cultures using 0.25% trypsin-A in DPBS solution (Biological industries, Beit-Haemek, Israel) for 15 seconds to dissociate the colonies into large clumps. Clumps were then transferred 1:1 into non-stick petri dishes and grown in regular HESC medium but without exogenous FGF2.
Drug treatments: Embryoid body media were supplemented with the various treatment compounds on the first day and changed on alternate days. […] Thalidomide (Sigma, T144) was dissolved in DMSO at 1000× stock solution and used at a final concentration of 10 μg/ml. All-trans-Retinoic acid (Sigma, R2625) was dissolved in DMSO at 100,000× stock solution and used at a final concentration of 1 μM.
Microarray data analysis: Following seven days in culture, embryoid bodies were harvested and RNA was extracted using RBC Bioscience (Taipei, Taiwan) total RNA extraction minikit (YRB50) according to the manufacturer's protocol. Hybridization to GeneChip Human Gene 1.0 ST expression arrays, washing and scanning were performed according to the manufacturer's protocol (Affymetrix). Arrays were analyzed using RMA probeset condensation algorithm (Expression Console, Affymetrix). […] Tissue specific genes were identified by comparing the expression of each of the five most relevant tissues to the mean expression of all other tissues (testis, brain, heart, spleen, skeletal muscle, kidney, liver, and breast). The top 200 genes by fold change for every tissue were regarded to be tissue specific genes.
Genes were considered differentially expressed when changed over two-fold. […] Significance was calculated separately for each test using a Chi-Square independence test and corrected for multiple testing (Bonferroni). […] Functional classification and significance were performed using the DAVID online functional annotation tool (worldwidewebdotdaviddotabccdotncifcrfdotgov/) using default settings, with a minimum p-value of 0.0001. General annotations with over 2000 members were removed from the analysis.

[4] = tested on: rodents; conditions: in vivo; cited from earlier work
[5] = tested on: human; conditions: in vivo; cited from earlier work
[6] = tested on: mouse; conditions: in vivo; cited from earlier work
[7] = lithium chloride 1 mM, caffeine 50 mg/ml, RA 1 μM, thalidomide 10 μg/ml
[8] = seven days, RA 1 μM, thalidomide 10 μg/ml
[9] = Gene Ontology functional annotation (DAVID), thalidomide 10 μg/ml

CC1=C(/C=C/C(C)=C/C=C/C(C)=C/C(=O)O)C(C)(C)CCC1 [RA, All-trans-Retinoic acid]
NCAM1 abundance at the protein level ([1]; 1 μM all-trans-retinoic acid, seven days): increase
differentiation into the neuronal lineage (HOXA1 and NCAM1 labeling) ([1]; RA treatment): higher differentiation into the neuronal lineage
expression of anterior HoxA and HoxB genes [2]: specifically upregulated
genes whose expression was significantly changed (over two-fold) relative to untreated controls [3, 7]: several hundred
homeobox protein genes enriched in upregulated genes, fold above expected frequency ([3]; Gene Ontology functional annotation (DAVID), RA 1 μM): 14.1 fold
expression of anterior HoxA and HoxB genes ([3]; HESC EBs, RA 1 μM, seven days): specifically upregulated
HOXA1 overexpression at the mRNA level ([3]; RA 1 μM, seven days, relative to control): 13.6 fold
fold enrichment of heart specific genes in downregulated genes ([3]; seven days, RA 1 μM): 5.3
fold enrichment of brain specific genes in upregulated genes [3, 8]: 2.6 fold

CC(=O)Oc1ccccc1C(=O)O [aspirin]
teratogenicity in rodents [4]: teratogenic
teratogenicity in humans [5]: not in humans

CCO [ethanol, Ethanol]
AFP staining (protein level) ([1]; 1.5% ethanol, seven days): dramatic increase
SOX17 staining (protein level) ([1]; 1.5% ethanol, seven days): dramatic increase
AFP staining (protein level) ([1]; 1.5% ethanol, seven days, listed as Ethanol): elevation of AFP staining
enriched functional annotations for downregulated genes ([3]; DAVID functional annotation, ethanol): no significantly enriched functional annotations
genes whose expression was significantly changed (over two-fold) relative to untreated controls ([3]; 0.5% ethanol (v/v)): little or no effect
genes whose expression was significantly changed (over two-fold) relative to untreated controls ([3]; ethanol 1.5% and 2%, analyzed together): several hundred
liver protein genes, upregulated functional group enrichment ([3]; Gene Ontology functional annotation (DAVID), ethanol treated EBs): 9.3 fold
expression of later adult hepatic markers (albumin, alcohol dehydrogenase genes) ([3]; ethanol treated EBs): not upregulated
expression of early hepatic markers (AFP, transthyretin, apolipoprotein and fibrinogen genes) ([3]; high ethanol (1.5% and 2%)): specifically upregulated

O=C1CCC(N2C(=O)c3ccccc3C2=O)C(=O)N1 (centres unmarked) [thalidomide, Thalidomide]
genes whose expression was significantly changed (over two-fold) relative to untreated controls [3, 7]: several hundred
downregulation of oxidative stress response genes, enrichment [3, 9]: 15.8 fold
nervous system development genes affected, enrichment [3, 9]: 2.5 fold
transforming growth factor beta genes affected, enrichment [3, 9]: 29.6 fold
upregulation of genes responsible for metabolism of xenobiotics, enrichment [3, 9]: 11.5 fold
fold enrichment of brain specific genes in upregulated genes [3, 8]: 12.5 fold
fold enrichment of liver specific genes in downregulated genes ([3]; seven days, thalidomide 10 μg/ml): 4.4 fold
teratogenicity in the mouse [6]: not identified prospectively as such
teratogenicity in humans [5]: strong human teratogen
